The record followed here is PMC6268294, “Synthesis of Chalcones with Anticancer Activities” (Molecules, 2012).

Converted amounts (≈) assume the structure as drawn. Like-named read-outs stand apart in the source and are kept apart here.

Data set [1] relates to human adenocarcinoma cell line HT-29 (colorectal cancer). In words: MTT cell viability assay, HT-29. The class given is cell-based. Conditions: 24 h treatment. On the procedure:
(§1) A549, PC3, MCF-7, HT-29, WRL68 and MCF-7 cells were obtained from the ATTC (Rockville, MD, USA) and grown in RPMI-1640 medium, 10% fetal bovine serum (FBS) and 1% pen-strep, in humidified conditions at 5% CO2 and 37 °C. The different cell lines mentioned above were used to determine the inhibitory effects of compounds on cell growth using the MTT assay. This colorimetric assay is based on the conversion of the yellow tetrazolium bromide (MTT) to a purple formazan derivative by mitochondrial succinate dehydrogenase in viable cells. Cells were seeded in 96-well plate and incubated for 24 h at 37 °C with 5% CO2 saturation. After incubation, the cells were treated with different concentration of compounds and incubated for another 24 h. After 24 h of drug treatment, 20 µL of MTT solution at 5 mg/mL was added and incubated for 4 h. Dimethyl sulfoxide (DMSO) in volume of 100 µL is added into each well to dissolve the purple formazan formed. The colorimetric assay is measured and recorded at absorbance of 570 nm.

In data set [2] the test system is MCF-7 (breast), A549 (lung), PC3 (prostate), HT-29 (colorectal) and WRL68 (liver). In words: MTT assay, summary over all five cell lines. The format is cell-based, human. As to conditions: for IC50: Homo sapiens, all five cell lines, read-out: IC50 in all cell lines. On the procedure: as §1
(In general: Tetrazolium assays rely on reduction of a dye to a coloured formazan, in cell work by metabolically active cells.)

Data set [3] deals with human normal liver cell line WRL-68. As to the kind of experiment: MTT cell viability assay, WRL68. The format is cell-based. Conditions: 24 h treatment. On the procedure:
as §1

Data set [4] concerns human breast adenocarcinoma cell line MCF-7. In words: MTT cell viability assay, MCF-7. As to conditions: MCF7, 24 h treatment. The format is cell-based. On the procedure:
as §1

A further data set concerns caspase-8 in MCF-7 cells. In words: Caspase-Glo-8 activity. The format is cell-based, human. As to conditions: MCF-7, 24 h, highest concentrations (6 µg/mL; 25: 4 µg/mL); control printed 50892 RLU; p < 0.05. The procedure: (§2) Due to the observation of significant cytotoxicity of selected compounds towards MCF-7 cells, the following analyses were done on them only. Cells were treated with compound 1 (1A- 3 µg/mL; 1B- 6 µg/mL), 23 (23A- 3 µg/mL; 23B- 6 µg/mL), 25 (25A- 2 µg/mL; 25B- 4 µg/mL) and 5 (5A- 3 µg/mL; 5B- 6 µg/mL).
(§3) Activity of cellular caspases was measured using the Caspase-Glo-9, Caspase-Glo-3/7 and Caspase-Glo-8 assay reagents (Promega), according to the manufacturer's instructions. The assays provide a luminogenic caspase-3/caspase-7 or caspase-8 or caspase-9 substrate, respectively, in a buffer system optimized for caspase activity measurement in cell lysates. The luciferase signal generated is proportional to the amount of caspase activity present. MCF-7 cells have no caspase-3 activity due to functional deletion of the CASP-3 gene. Therefore, the activity measured in this test is that of caspase-7. Briefly, cells were plated in opaque 96-well plates in triplicate and treated with […]. After 24 h treatment with compounds 1, 23, 25 and 5 as mentioned before, the assay reagents were added to the plates at room temperature and incubated for 60 min, and the luminescence was measured using a plate reader. All assays were done in triplicate, and means ± SD were calculated for each condition.

In data set [5] the test system is human prostate cancer cell line PC3. As to the kind of experiment: MTT cell viability assay, PC3. The class given is cell-based. Conditions: 24 h treatment. On the procedure: as §1
The next data set concerns MCF-7 cells. As to the kind of experiment: Multiparametric high content screening (HCS) cytotoxicity/apoptosis assay. The format is cell-based, human. Conditions: for cell (membrane) permeability / cytochrome c release / mitochondrial membrane potential / total nuclear intensity (Hoechst 33342 nuclear chromatin staining) / cell loss: MCF-7, compounds 2-6 µg/mL; for cell (membrane) permeability / cytochrome c release / mitochondrial membrane potential / total nuclear intensity (Hoechst 33342 nuclear chromatin staining): tamoxifen 0.04 µg/mL, vs control; for cell loss: data not shown; for apoptosis in MCF-7 cells: shown by multiparameter cytotoxicity assay and caspase-3/7, -8, -9 activities, p < 0.05.

Data set [6] relates to human lung adenocarcinoma cell line A549. As to the kind of experiment: MTT cell viability assay, A549. The class given is cell-based. As to conditions: 24 h treatment. The procedure: as §1
Data set [7] concerns caspase-3/7 in MCF-7 cells. As to the kind of experiment: Caspase-Glo-3/7 activity. The class given is cell-based, human. Conditions: MCF-7, 24 h, highest concentration (6 µg/mL for 1); control 30,140 RLU. The procedure:
as §2, §3

Usually IC50 stands for the concentration that inhibits the measured activity by half. The compound `O=C(/C=C/c1cccc(Cl)c1)c1ccccc1` [Compound 25, 3-(3-Chlorophenyl)-1-phenylpropenone] returned an IC50 in data set [1] of 7.77 ± 1.1 µg/mL (≈ 32 µM). The “cytotoxic effect in words” value in data set [2] was “high cytotoxicity”. Besides, in [2] (MTT), the IC50 was under 20 µg/mL. In data set [3], this compound came in with an IC50 of 7.72 ± 1.6 µg/mL (≈ 31.8 µM). Also, in data set [4], half-maximal inhibition (IC50) required 5.25 ± 0.67 µg/mL (≈ 21.6 µM). Besides, the “caspase-8 activity at highest concentration” value in the data set with caspase-8 in MCF-7 cells is 18,356 RLU. In addition, in data set [5], the IC50 came out at 6.94 ± 0.61 µg/mL (≈ 28.6 µM). Besides, in the data set with MCF-7 cells, the “cell (membrane) permeability” value was “increased cell permeability”, the cytochrome c release result was “cytochrome c release from mitochondria”, the mitochondrial membrane potential entry was “loss of mitochondrial membrane potential” and the “total nuclear intensity (Hoechst 33342 nuclear chromatin staining)” value (from here on “total nuclear intensity”) is “increased total nuclear intensity”. Besides, in the data set with MCF-7 cells, the cell loss result is reported as “statistically significant cell loss” and the “apoptosis in MCF-7 cells” value is recorded as “capable in eliciting apoptosis”. In addition, the concentration for half-maximal inhibition (IC50) in data set [6] came out at 14.5 ± 0.2 µg/mL (≈ 59.7 µM).

As a reminder, the melting point is the temperature, or range, at which the solid turns liquid. Compound `Cc1ccc(C(=O)/C=C/c2ccccc2O)cc1` [Compound 23, 3-(2-Hydroxyphenyl)-1-p-tolylpropenone] had a melting point of 165 to 167 °C. Further, the IC50 in data set [1] is 13 ± 0.54 µg/mL (≈ 54.5 µM). Besides, the “cytotoxic effect in words” value in data set [2] is recorded as “high cytotoxicity”. For the same compound, the concentration for half-maximal inhibition (IC50) in data set [2] (MTT) was under 20 µg/mL. The compound also showed an IC50 in [3] of 9.53 ± 1.5 µg/mL (≈ 40 µM). Besides, the 50% inhibitory concentration (IC50) in data set [4] was 6.87 ± 1.2 µg/mL (≈ 28.8 µM). Moreover, the “caspase-8 activity at highest concentration” value in the data set with caspase-8 in MCF-7 cells was 18,342 RLU. This compound had a half-inhibitory concentration (IC50) in data set [5] of 9.49 ± 0.7 µg/mL (≈ 39.8 µM). Also, in the data set with MCF-7 cells, the “cell (membrane) permeability” value was “increased cell permeability”, the cytochrome c release result was “cytochrome c release from mitochondria”, the mitochondrial membrane potential result is on record as “loss of mitochondrial membrane potential” and the “total nuclear intensity” value is recorded as “increased total nuclear intensity”. Besides, in the data set on MCF-7 cells, the cell loss entry was “statistically significant cell loss” and the “apoptosis in MCF-7 cells” value was “capable in eliciting apoptosis”. This compound also yielded an IC50 in data set [6] of 16.8 ± 1.76 µg/mL (≈ 70.5 µM).

Regarding `O=C(/C=C/c1ccccc1)c1ccccc1` [Compound 1, 1,3-Diphenylpropenone], the IC50 in data set [1] was 10.1 ± 1.01 µg/mL (≈ 48.5 µM). For the same compound, the 50% inhibitory concentration (IC50) in [2] (MTT) is under 20 µg/mL. For the same compound, the “cytotoxic effect in words” value in data set [2] (all cell lines, MTT) is given as “high cytotoxicity”. The compound further had an IC50 in data set [3] of 10.6 ± 0.89 µg/mL (≈ 50.7 µM). In [4], this compound gave an IC50 of 6.88 ± 0.219 µg/mL (≈ 33 µM). Further, in [5], the half-maximal inhibitory concentration (IC50) came to 9.11 ± 0.9 µg/mL (≈ 43.7 µM). Besides, in the data set with MCF-7 cells, the “cell (membrane) permeability” value is given as “increased cell permeability”, the cytochrome c release result is “cytochrome c release from mitochondria”, the mitochondrial membrane potential result is recorded as “loss of mitochondrial membrane potential” and the “total nuclear intensity” value is reported as “increased total nuclear intensity”. Besides, in the data set on MCF-7 cells, the cell loss entry is on record as “statistically significant cell loss” and the “apoptosis in MCF-7 cells” value is “capable in eliciting apoptosis”. In data set [7], the “caspase-3/7 activity at highest concentration” value was 210430 RLU. The compound also yielded an IC50 in data set [6] of 16.8 ± 1.08 µg/mL (≈ 80.5 µM).
